Assays:
[1] = xn = mol fraction of the nth substance listed; settings: 101 kPa, Liquid; for viscosity: Capillary tube (Ostwald / Ubbelohde) method; for mass density: Vibrating tube method
[2] = refractive index (Na D-line) (dimensionless); xn = mol fraction of the nth substance listed; settings: 101 kPa, Liquid, Standard Abbe refractometry

C1C[C@@H]2[C@H]3CC[C@H](C3)[C@@H]2C1 [exo-tetrahydrodicyclopentadiene] + CCCCC1CCCCC1
Settings | mass density, [1] [kg/m3] | refractive index, [2] | viscosity, [1] [mPa·s]
293.15 K, x1 = 0.1 | 811.06 | 1.444 | 1.391
293.15 K, x1 = 0.1993 | 822.96 | 1.4478 | 1.49
293.15 K, x1 = 0.2997 | 835.42 | 1.4521 | 1.602
293.15 K, x1 = 0.3991 | 848.2 | 1.4568 | 1.732
293.15 K, x1 = 0.5002 | 861.66 | 1.4613 | 1.879
293.15 K, x1 = 0.6005 | 875.49 | 1.466 | 2.044
293.15 K, x1 = 0.7 | 889.72 | 1.4712 | 2.234
293.15 K, x1 = 0.8004 | 904.57 | 1.4766 | 2.446
293.15 K, x1 = 0.8999 | 919.8 | 1.4818 | 2.688
293.15 K, x1 = 1 | 935.72 | 1.4874 | 2.992
298.15 K, x1 = 0.1 | 807.31 | – | 1.279
298.15 K, x1 = 0.1993 | 819.19 | – | 1.367
298.15 K, x1 = 0.2997 | 831.63 | – | 1.467
298.15 K, x1 = 0.3991 | 844.39 | – | 1.584
298.15 K, x1 = 0.5002 | 857.83 | – | 1.715
298.15 K, x1 = 0.6005 | 871.64 | – | 1.863
298.15 K, x1 = 0.7 | 885.86 | – | 2.032
298.15 K, x1 = 0.8004 | 900.7 | – | 2.224
298.15 K, x1 = 0.8999 | 915.95 | – | 2.438
298.15 K, x1 = 1 | 931.84 | – | 2.71
303.15 K, x1 = 0.1 | 803.53 | 1.4393 | 1.181
303.15 K, x1 = 0.1993 | 815.39 | 1.4435 | 1.261
303.15 K, x1 = 0.2997 | 827.82 | 1.448 | 1.351
303.15 K, x1 = 0.3991 | 840.57 | 1.4522 | 1.456
303.15 K, x1 = 0.5002 | 853.98 | 1.457 | 1.574
303.15 K, x1 = 0.6005 | 867.78 | 1.4619 | 1.707
303.15 K, x1 = 0.7 | 881.99 | 1.4669 | 1.858
303.15 K, x1 = 0.8004 | 896.81 | 1.4718 | 2.031
303.15 K, x1 = 0.8999 | 912.05 | 1.4774 | 2.223
303.15 K, x1 = 1 | 927.94 | 1.4831 | 2.467
308.15 K, x1 = 0.1 | 799.75 | – | 1.096
308.15 K, x1 = 0.1993 | 811.6 | – | 1.168
308.15 K, x1 = 0.2997 | 824.01 | – | 1.249
308.15 K, x1 = 0.3991 | 836.73 | – | 1.344
308.15 K, x1 = 0.5002 | 850.13 | – | 1.451
308.15 K, x1 = 0.6005 | 863.92 | – | 1.571
308.15 K, x1 = 0.7 | 878.11 | – | 1.707
308.15 K, x1 = 0.8004 | 892.92 | – | 1.862
308.15 K, x1 = 0.8999 | 908.14 | – | 2.036
308.15 K, x1 = 1 | 924.02 | – | 2.255
313.15 K, x1 = 0.1 | 795.96 | 1.435 | 1.02
313.15 K, x1 = 0.1993 | 807.79 | 1.4391 | 1.085
313.15 K, x1 = 0.2997 | 820.18 | 1.4435 | 1.159
313.15 K, x1 = 0.3991 | 832.89 | 1.448 | 1.245
313.15 K, x1 = 0.5002 | 846.27 | 1.4524 | 1.342
313.15 K, x1 = 0.6005 | 860.05 | 1.4575 | 1.451
313.15 K, x1 = 0.7 | 874.22 | 1.4626 | 1.573
313.15 K, x1 = 0.8004 | 889.02 | 1.4677 | 1.715
313.15 K, x1 = 0.8999 | 904.23 | 1.4728 | 1.872
313.15 K, x1 = 1 | 920.11 | 1.4786 | 2.069
318.15 K, x1 = 0.1 | 792.17 | – | 0.952
318.15 K, x1 = 0.1993 | 803.98 | – | 1.012
318.15 K, x1 = 0.2997 | 816.35 | – | 1.079
318.15 K, x1 = 0.3991 | 829.04 | – | 1.157
318.15 K, x1 = 0.5002 | 842.41 | – | 1.246
318.15 K, x1 = 0.6005 | 856.16 | – | 1.345
318.15 K, x1 = 0.7 | 870.32 | – | 1.456
318.15 K, x1 = 0.8004 | 885.11 | – | 1.585
318.15 K, x1 = 0.8999 | 900.32 | – | 1.727
318.15 K, x1 = 1 | 916.18 | – | 1.907
